Experimental data reported in publication PMC8568133, “Evaluation of bisphenylthiazoles as a promising class for combating multidrug-resistant fungal infections” (PLoS ONE, 2021).
Where two headings read alike, the source gives them in different places.

Columns and labels:
[1] = tested on: E. coli BW25113 (wild-type); test: Broth microdilution MIC, initial antibacterial screening; type: cell-based, Escherichia coli; conditions: Escherichia coli, read-out: MIC
Procedure: (§1) The minimum inhibitory concentrations (MICs) of the tested compounds and control drugs against clinically-relevant bacterial strains were determined using the broth microdilution method, according to guidelines outlined by the Clinical and Laboratory Standards Institute (CLSI), or as described previously.
(§2) Initial screening of the bisphenylthiazoles against Gram-positive and Gram-negative bacteria. Bacterial strains, (except C. difficile that was grown anaerobically on brain heart infusion supplemented agar at 37° C for 48 hours), were grown aerobically overnight on tryptone soy agar plates at 37° C. Afterwards, a bacterial solution equivalent to 0.5 McFarland standard was prepared and diluted in cation-adjusted Mueller-Hinton broth (CAMHB) (for S. aureus, and E. coli) to achieve a bacterial concentration of about 5 × 10^5 CFU/mL. C. difficile was diluted in brain heart infusion supplemented broth, supplemented with yeast extract, hemin and vitamin K to achieve a bacterial concentration of about 5 × 10^5 CFU/mL. Compounds and control drugs were added in the first row of the 96 -well plates, and serially diluted with the corresponding media containing bacteria. Plates were then, incubated aerobi cally at 37° C for 18-20 hours (for S. aureus and E. coli). C. difficile was incubated anaerobically at 37° C for 48 hours. […]
(§3) the visual growth of bacteria.

[2] = tested on: human colorectal cells (Caco-2); test: In vitro cytotoxicity, MTS assay; conditions: human, 24 h
Procedure: (§4) Fig 2 In vitro cytotoxicity assay of bisphenylthiazole compounds 7, 16 and 17 (tested in triplicates at 32, 64 and 128 μg/mL) against: A) human colorectal cells (Caco-2), and B) monkey kidney epithelial cells (Vero) after 24-hours exposure time, using the MTS 3-(4,5-dimethylthiazol-2-yl)-5-(3-carboxymethoxyphenyl)-2-(4-sulfophenyl)-2H-tetrazolium) assay. The data represent the percentage of viable Caco-2 or Vero cells measured as the average absorbance relative to DMSO after exposure to the tested compounds. Dimethyl sulfoxide (DMSO) was used as a negative control. Error bars represent the standard deviation values.
(§5) To explore the tolerability of bisphenylthiazoles, their cytotoxicity profile was assessed in human colorectal adenocarcinoma (Caco-2) and monkey kidney epithelial cells (Vero) as described earlier. Briefly, compounds were incubated with the cells for 24 hours. Then, cells were incubated with MTS reagent for 3 hours before measuring the absorbance values (OD490). The experiment was repeated in two independent times.

[3] = tested on: monkey kidney epithelial cells (Vero); test: In vitro cytotoxicity, MTS assay; conditions: Vero, 24 h exposure, MTS
Procedure: as §4, §5

[4] = tested on: E. coli JW55031 (tolC-mutant); test: microbe, parasite or virus in culture; type: cell-based, Escherichia coli; conditions: Escherichia coli
Procedure: as §1, §2, §3

Cryptococcus gattii = test: Antifungal broth microdilution MIC (50% growth inhibition, 48 h); type: cell-based; conditions: Cryptococcus gattii, read-out: MIC
Procedure: (§6) Serial dilutions (from 128 μg/mL to 0.06 μg/mL) of the tested compounds and control drugs (fluconazole, itraconazole and amphotericin) (in triplicates), were screened against clinical isolates of Candida albicans, Candida auris, Candida glabrata, Candida parapsilosis, Candida tropicalis, Candida krusei, Cryptococcus neoformans, Cryptococcus gattii and Aspergillus fumigatus species using the broth microdilution method according to the Clinical and Laboratory Standards Institute guidelines. MICs were determined as the lowest concentration of the compounds that inhibited the fungal growth by 50% after incubation at 35 °C for 24 h (for Candida and Aspergillus), or 48 h (for Cryptococcus). The minimum fungicidal concentration (MFC) of these compounds was tested by plating 4 μL from wells with no growth onto YPD agar plates. The plates were incubated at 37 °C for 24 hours before recording the MFC, which was categorized as the lowest concentration that reduced fungal growth by 99.9% [45]. The experiment was repeated three independent times.

Cryptococcus neoformans = test: as above; type: cell-based; conditions: Cryptococcus neoformans, read-out: MIC
Procedure: as §6

[5] = tested on: C. difficile ATCC BAA1870; test: Broth microdilution MIC, initial antibacterial screening (anaerobic); type: cell-based, Clostridioides difficile; conditions: Clostridioides difficile, ATCCBAA1870, read-out: MIC
Procedure: as §1, §2, §3

[6] = GSH trap (reactive metabolite); type: in vitro ADME; conditions: reactive metabolite formation
[7] = tested on: Lactobacillus casei ATCC-334; test: Broth microdilution MIC against normal human microbiota; type: cell-based; conditions: Lacticaseibacillus casei, ATCC334; Lactobacillus casei ATCC-334; read-out: MIC
Procedure: (§7) Broth microdilution was utilized to determine the activity of bisphenylthiazoles against the human gut microflora as described elsewhere. A bacterial solution equivalent to 0.5 McFarland standards was prepared and diluted in MRS broth to achieve a bacterial concentration of approximately 5 x 10^5 CFU/mL. Then, compounds/control antifungals (in triplicates), were added to the plates and serially diluted with media containing bacteria. The plates were incubated for 48 hours at 37 °C before recording the MIC values. The experiment was repeated three independent times.

[8] = tested on: Lactobacillus crispatus HM-370; test: as above; type: cell-based; conditions: HM370; Lactobacillus crispatus HM-370; read-out: MIC
Procedure: as §7

[9] = tested on: Lactobacillus gasseri HM-400; test: as above; type: cell-based; conditions: HM400; Lactobacillus gasseri HM-400; read-out: MIC
Procedure: as §7

MRSA USA300 = test: Broth microdilution MIC, initial antibacterial screening; type: cell-based, S. aureus; conditions: Staphylococcus aureus; MRSA USA300; read-out: MIC
Procedure: as §1, §2, §3

Candida glabrata = test: Antifungal broth microdilution MIC (50% growth inhibition) and MFC; type: cell-based; conditions: Nakaseomyces glabratus, read-out: MIC
In short: (§8)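 Read-out was the lowest concentration inhibiting fungal growth by 50% (MIC) or reducing it by 99.9% after subculture onto YPD agar (MFC). Testing followed CLSI broth microdilution on clinical isolates at 35 °C, 24 h for Candida and 48 h for Cryptococcus.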

Candida tropicalis = test: as above; type: cell-based; conditions: Candida tropicalis, ATCC1369; C. tropicalis ATCC 1369; read-out: MIC
In short: as §8

Candida auris = test: as above; type: cell-based; conditions: Candidozyma auris, read-out: MIC
In short: (§9)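 CLSI broth microdilution, 128 to 0.06 μg/mL in triplicate, on clinical isolates; MIC is lowest concentration giving 50% growth inhibition after 24 h (Candida) or 48 h (Cryptococcus) at 35 °C. MFC: no-growth wells plated on YPD agar, 24 h at 37 °C, 99.9% reduction; three independent repeats.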

Candida albicans = test: as above; type: cell-based; conditions: Candida albicans, read-out: MIC
In short: as §9

Candida krusei = test: as above; type: cell-based; conditions: Pichia kudriavzevii, read-out: MIC
In short: as §8

Candida parapsilosis = test: Antifungal broth microdilution MIC (50% growth inhibition); type: cell-based; conditions: Lodderomyces parapsilosis, read-out: MIC
In short: as §9

Aspergillus fumigatus = test: as above; type: cell-based; conditions: Aspergillus fumigatus, read-out: MIC
In short: as §9

Cc1nc(-c2ccc(-c3ccccc3)cc2)sc1-c1nnc(NCCN)o1 [Compound 7, N-{5-[2-((1,1’-Biphenyl)-4-yl)-4-methylthiazol-5-yl]-1,3,4-oxadiazol-2-yl}ethane-1,2-diamine]
16 µg/mL: MIC (Candida albicans; C. albicans NR-29448 (fluconazole-resistant)) | MIC (Aspergillus fumigatus; A. fumigatus NR 35303)
> 64 µg/mL: MIC [1] | MIC [5]
2 µg/mL: MIC (Cryptococcus gattii; C. gattii NR 43209) | MIC (Cryptococcus gattii; C. gattii NR 43210) | MIC (Cryptococcus neoformans; C. neoformans NR 41298) | MIC (Cryptococcus neoformans; C. neoformans NR 48770) | MIC (Candida glabrata; ATCC66032, C. glabrata ATCC 66032) | MIC (Candida auris; C. auris 383) | MIC (Candida auris; C. auris 390) | MIC (Candida krusei; ATCC34135, C. krusei ATCC 34135) | MIC (Candida krusei; C. krusei CAB 396420) | MIC (Candida parapsilosis; ATCC22019, C. parapsilosis ATCC 22019) | MIC (Candida parapsilosis; C. parapsilosis CAB 502638)
64 µg/mL: MIC [4] | MIC [9]
> 128 µg/mL: MIC [7] | MIC [8]
1 µg/mL: MIC (Candida glabrata; C. glabrata ATCC MYA-2950)
≤ 64 µg/mL: concentration up to which non-toxic [2] | concentration up to which non-toxic [3]
-ve: GSH trap [6]
4 µg/mL: MIC (Cryptococcus neoformans; C. neoformans NR 41300) | MIC (Candida auris; C. auris 384) | MIC (Candida auris; C. auris 385) | MIC (Candida auris; C. auris 388) | MIC (Candida albicans; C. albicans SS5314 (wild-type))
32 µg/mL: MIC (MRSA USA300)
8 µg/mL: MIC (Candida tropicalis) | MIC (Candida auris; C. auris 381) | MIC (Candida auris; C. auris 382) | MIC (Candida auris; C. auris 386) | MIC (Candida auris; C. auris 387) | MIC (Candida auris; C. auris 389) | MIC (Candida albicans; ATCC10231, C. albicans ATCC 10231) | MIC (Aspergillus fumigatus; A. fumigatus NR 35304)
145 to 146 °C: melting point
